Measurements from patent publication US9198957B2, “Treatment and prevention of bacterial vaginosis and Gardnerella vaginalis infections” (The Trustees of Columbia University in the City of New York, priority 2011, dated 2015).

How the values were obtained:
[1] = reference (77); cited from earlier work
Atopobium vaginae = conditions: reference (80); cited from earlier work
strain ARG3 = assay: MIC by E-test, strain ARG3; format: cell-based, Gardnerella vaginalis; conditions: Mueller-Hinton agar with 5% sheep's blood, CLSI, repeated twice
strain 49145 = assay: MIC by E-test, strain 49145; format: cell-based, Gardnerella vaginalis; conditions: Mueller-Hinton agar with 5% sheep's blood, CLSI, repeated twice
[2] = system: BV and G. vaginalis infections; conditions: cited from earlier work
Gardnerella biofilms = assay: Fluorescence microscopy of DNase-treated biofilms; format: cell-based, Gardnerella vaginalis; conditions: DNase-treated vs untreated biofilms
[3] = system: Gardnerella strain ARG3 biofilm; assay: Inhibition of newly forming biofilm (safranin stain), strain ARG3; format: cell-based, Gardnerella vaginalis; conditions: DNase 10 μg/ml and 100 μg/ml, time=0 hours; FIG. 2
Experimental: (§1) Biofilms of multiple Gardnerella strains [G. Vaginalis is the only species in the genus Gardnerella.] were grown, separately, in vitro in 96-well plates in BHI-supplemented media. Bovine pancreas DNase was added in varying concentrations to biofilm cultures at 0 hours (newly forming biofilms) and 24 hours (established biofilms.) The biofilms were washed, the supernatant was removed, and the biofilms were stained with safranin and solubilized in acetic acid. Biofilm absorbance at A462 nm was measured with a spectrophotometer, which method quantifies the amount of safranin stain taken up by the biofilm. DNase-treated and untreated biofilms were also grown in chamber slides and DAPI staining was performed for fluorescence microscopy.
Biofilms were grown in the presence of varying concentrations of antibiotic and DNase administered at t=0 hours to test the effect of the agents on biofilm formation. […]
180 μL of bacteria and 20 μL of DNase at varying concentrations (1:10 dilutions of 1 mg/mL to final concentrations in the wells as labeled in the figures) or PBS as a control (total volume always 200 μL) were added together at t=0 hours and incubated for 24 hours. They were then washed, stained with safranin and solubilized with ascetic acid, with measurement of absorbance at 462 nm to quantify density of stained material. […]

[4] = system: established Gardnerella strain ARG3 biofilms; assay: Breakdown of established (24 h) biofilm, strain ARG3; format: cell-based, Gardnerella vaginalis; conditions: DNase administered at t=24 hours; FIG. 4
Experimental: as §1
(§2) Biofilms were grown in the presence of varying concentrations of antibiotic and DNase administered at t=0 hours to test the effect of the agents on biofilm formation. To test the effects on the degradation of established biofilms, the agents were administered at t=24 hours.
(§3) All cultures and biofilms were grown in ‘biofilm media’ (BHI media+0.3% starch, 0.3% glucose, 0.5 mcg/mL amphotericin B) at 37° C. and 5% CO2. Liquid cultures of strains 49145 or ARG3 were grown overnight to a standardized OD600 of 0.6 and diluted 1:10 prior to aliquoting for biofilms. […]
(§4) For quantification as above, antibiotic concentrations were chosen based on the MIC (⅛-4× MIC).

[5] = system: ATCC Gardnerella strain 49145 biofilms; assay: Liberation of bacteria from biofilm into supernatant / bacterial killing (colony counts); format: cell-based, Gardnerella vaginalis
Experimental: Further experiments were conducted to assess whether there is an improved effect on biofilm formation and breakdown by the combined administration of DNase and antibiotics against Gardnerella. The y axis plots the % of biofilm absorbance A462 for each condition. […] The minimum inhibitory concentration (MIC) for the antibiotics was measured by E-testing the relevant strains. Colony counts were performed on both the supernatant and the biofilm components of the culture, and a one-way ANOVA with Bonferroni post-tests were performed using Prism (Graphpad) where DNase was administered at time=24 hours.

[6] = system: group B Streptococcus biofilm; assay: Inhibition of group B Streptococcus biofilm formation (A462); format: cell-based; conditions: DNase 100 μg/ml, t=0 hours; FIG. 17
Experimental: as §1
(§5) 180 μL of bacteria and 20 μL of DNase at varying concentrations (1:10 dilutions of 1 mg/mL to final concentrations in the wells as labeled in the figures) or PBS as a control (total volume always 200 μL) were added together at t=0 hours and incubated for 24 hours. They were then washed, stained with safranin and solubilized with ascetic acid, with measurement of absorbance at 462 nm to quantify density of stained material.
The results depicted in FIG. 17 show the dose-response inhibition of group B Streptococcus biofilm formation by DNase that was administered at t=0 hours as assessed by measuring the absorbance of light at 462 nm (A462).

G. Vaginalis ARG37 = assay: Murine model of vaginal colonization; format: in vivo; conditions: co-inoculation with DNase, mice, strain ARG37; FIG. 16
From the text: The same strategy works in the complex environment of the lower genital tract in murine models of vaginal colonization. Models for vaginal colonization of mice with G. Vaginalis and group B Streptococcus have been developed. […] FIG. 16. These models will important in prophylactic use in at-risk populations including, but not limited to, pregnant women, those individuals infected with sexually transmitted diseases including HIV, and those individuals with recurrent BV.

[7] = system: established Gardnerella strain 49145 biofilms; assay: Breakdown of established (24 h) biofilm, strain 49145; format: cell-based, Gardnerella vaginalis; conditions: DNase administered at t=24 hours; FIG. 3
Experimental: as §1, §2, §3, §4

[8] = system: Gardnerella strain 49145 biofilm; assay: Inhibition of newly forming biofilm (safranin stain, A462), strain 49145; format: cell-based, Gardnerella vaginalis; conditions: for reduction in biofilm formation (% biofilm density): FIG. 6
Experimental: as §1, §2
All cultures and biofilms were grown in ‘biofilm media’ (BHI media+0.3% starch, 0.3% glucose, 0.5 mcg/mL amphotericin B) at 37° C. and 5% CO2. Liquid cultures of strains 49145 or ARG3 were grown overnight to a standardized OD600 of 0.6 and diluted 1:10 prior to aliquoting for biofilms. Cultures were aliquoted into 96-well plates as follows:
as §5
160 μL of culture, 20 µL of antibiotic at varying concentrations (1:10 and 2-fold dilutions to final concentrations in wells as labeled in the figures), and 20 μL of DNase at varying concentrations (1:10 dilutions as above) with 20-40 μL of PBS used when necessary for controls (wells without antibiotic, DNase, or both) were added to wells at t=0 hours and incubated for 24 hours as above. Biofilms were quantified as above.

[9] = system: biofilms made by G. vaginalis; conditions: Patterson et al. 2007; cited from earlier work

Q: For `CCS(=O)(=O)CCn1c([N+](=O)[O-])cnc1C` [Tinidazole], which half-life [1] is on record?
A: 12 to 14 h

Q: For `CC1(C)S[C@@H]2[C@H](NC(=O)[C@H](N)c3ccccc3)C(=O)N2[C@H]1C(=O)O` [ampicillin], which “Etest susceptibility concentration (range)” value (Atopobium vaginae) is on record?
A: <0.016 to 0.94 µg/mL

Q: For `CC[C@H]1OC(=O)[C@H](C)[C@@H](O[C@H]2C[C@@](C)(OC)[C@@H](O)[C@H](C)O2)[C@H](C)[C@@H](O[C@@H]2O[C@H](C)C[C@H](N(C)C)[C@H]2O)[C@](C)(O)C[C@@H](C)CN(C)[C@H](C)[C@@H](O)[C@]1(C)O` [azithromycin], which “Etest susceptibility concentration (range)” value (Atopobium vaginae) is on record?
A: <0.016 to 0.32 µg/mL

Q: With `O=C(O)c1cn(C2CC2)c2cc(N3CCNCC3)c(F)cc2c1=O` [ciprofloxacin] as the compound, how does the “Etest susceptibility concentration (range)” value (Atopobium vaginae) read?
A: 0.023 to 0.25 µg/mL

Q: For `CC(=O)NC[C@H]1CN(c2ccc(N3CCOCC3)c(F)c2)C(=O)O1` [linezolid], which “Etest susceptibility concentration (range)” value (Atopobium vaginae) is on record?
A: 0.016 to 0.125 µg/mL

Q: For `Cc1ncc([N+](=O)[O-])n1CCO` [metronidazole], which “Minimum Inhibitory Concentration (MIC)” value (strain ARG3) is on record?
A: 4

Q: And the “Minimum Inhibitory Concentration (MIC)” value (strain 49145)?
A: 4

Q: And the “cure rates (by Amsel criteria)” value ([2]; at four weeks, oral regimens for one week)?
A: approximately 80%

Q: And the “early rates of clinical cure” value ([2]; multiple divided-dose oral regimens for one week)?
A: > 90%

Q: And the half-life [1]?
A: 6 to 7 h

Q: Which “biofilm matrix and overall density by fluorescence microscopy” value (Gardnerella biofilms) does the source give for DNase here?
A: decrease in the biofilm matrix and in overall density

Q: And the “extent of biofilm formation (% biofilm density)” value [3]?
A: dramatic reduction

Q: And the “breakdown of established biofilms” value [4]?
A: dose-dependent breakdown

Q: What about the “bacterial killing in biofilm cultures” value ([5]; DNase alone) of the same compound?
A: does not kill the bacteria

Q: And the “release of biofilm-embedded bacteria” value ([5]; DNase, FIGS. 13-15)?
A: released into the supernatant

Q: And the “extent of biofilm formation (A462)” value [6]?
A: dramatic reduction

Q: What about the “establishment of vaginal colonization” value (G. Vaginalis ARG37) of the same compound?
A: inhibited the establishment of colonization

Q: What about the “breakdown of established biofilms” value [7] of the same compound?
A: dose-dependent breakdown

Q: And the “extent of biofilm formation (A462)” value ([8]; DNase 10 μg/ml and 100 μg/ml, administered at time=0 hours, FIG. 1)?
A: dramatic reduction

Q: And the “reduction in biofilm formation (% biofilm density)” value ([8]; DNase alone 1 μg/mL, t=0 hours)?
A: 30%

Q: And the “reduction in biofilm formation (A462)” value ([8]; DNase alone 1 μg/mL, t=0 hours, FIG. 8 (C))?
A: 30%

Q: What about the “reduction in biofilm formation (% biofilm density)” value ([8]; DNase alone 100 μg/mL, t=0 hours) of the same compound?
A: 75%

Q: And the “reduction in biofilm formation or breakdown” value [9]?
A: no reduction in biofilm formation or breakdown

Q: Which “Etest susceptibility concentration (range)” value (Atopobium vaginae) does the source give for penicillin here?
A: 0.008 to 0.25 µg/mL
